Measured values from PMC6030209, “Structure-Activity Investigations and Optimisations of Non-metabolite Agonists for the Succinate Receptor 1” (Scientific Reports, 2018).
Like-named read-outs stand apart in the source and are kept apart here.

Assays:
Type in all cases: cell-based
hSUCNR1 = biological target: T1, hSUCNR1 (Homo sapiens, UniProt Q9BXA5); assay: IP3 turnover assay in hSUCNR1 transfected HEK-293 cells; settings: for hSUCNR1 efficacy, %: efficacy relative to succinate (100%), HEK cells (N = 3); for hSUCNR1 efficacy, % / hSUCNR1 % @10^−4M: IP3 turnover; for hSUCNR1 % @10^−4M: relative to succinate (100%)
T1 construct: FLAG (own knowledge: pCMV-Tag 2B is an N-terminal FLAG vector); host or cells: HEK-293, transient transfection with Lipofectamine-2000
T1 sequence (Q9BXA5 1-334): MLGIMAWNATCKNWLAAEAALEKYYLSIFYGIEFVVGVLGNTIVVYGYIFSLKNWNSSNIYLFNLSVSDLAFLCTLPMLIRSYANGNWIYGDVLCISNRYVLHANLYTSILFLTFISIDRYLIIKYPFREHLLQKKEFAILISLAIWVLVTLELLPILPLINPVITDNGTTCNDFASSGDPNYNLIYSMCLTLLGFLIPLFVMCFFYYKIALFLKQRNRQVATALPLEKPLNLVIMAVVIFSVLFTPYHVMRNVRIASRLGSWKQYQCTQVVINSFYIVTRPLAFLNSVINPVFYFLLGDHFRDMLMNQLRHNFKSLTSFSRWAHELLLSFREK
Procedure: (§1) Receptor constructs for mSUCNR1 and hSUCNR1 were bought from Origene and cloned into the eukaryotic expression vector pCMV-Tag(2B) (Stratagene).
(§2) Transient transfection of the HEK-293 cells was done with Lipofectamine-2000 according to manufacturer’s protocol. Cells were supplemented with fresh medium after 5 h.
(§3) 96-well plates were coated with poly-D-lysine and HEK-293 cells were plated (35.000 cells/well). Cells were transfected for 5 h the following day and subsequently incubated O/N with 0.5 μCi/mL myo[3H]inositol (Perkin Elmer) in 100 μL growth medium. On day 3 cells were washed with 200 µL HBSS/well (Gibco, Life Technologies) followed by a pre-incubation (30 min, 37 °C) with 100 µL HBSS supplemented with 10 mM LiCl. Cells were stimulated with ligand (120 min, 37 °C) and lysed with 50 µL 10 mM formic acid (30 min on ice). In a white 96 well plate 20 µL cell extracts and 80 µL 1:8 diluted YSi scintillation beads (Perkin Elmer) were mixed. The plate was spun down, and a Packard Top Count NXT counter recorded light emission (scintillation) after an 8 h delay.

mSUCNR1 = biological target: T2, mSUCNR1 (Mus musculus, UniProt Q99MT6); assay: IP3 turnover assay in mSUCNR1 transfected HEK-293 cells; settings: for mSUCNR1 efficacy, %: efficacy relative to succinate (100%), HEK cells (N = 3); for mSUCNR1 efficacy, % / mSUCNR1 % @10^−4M: IP3 turnover; for mSUCNR1 % @10^−4M: relative to succinate (100%)
T2 construct: FLAG (own knowledge: pCMV-Tag 2B is an N-terminal FLAG vector); host or cells: HEK-293, transient transfection with Lipofectamine-2000
T2 sequence (Q99MT6 1-317): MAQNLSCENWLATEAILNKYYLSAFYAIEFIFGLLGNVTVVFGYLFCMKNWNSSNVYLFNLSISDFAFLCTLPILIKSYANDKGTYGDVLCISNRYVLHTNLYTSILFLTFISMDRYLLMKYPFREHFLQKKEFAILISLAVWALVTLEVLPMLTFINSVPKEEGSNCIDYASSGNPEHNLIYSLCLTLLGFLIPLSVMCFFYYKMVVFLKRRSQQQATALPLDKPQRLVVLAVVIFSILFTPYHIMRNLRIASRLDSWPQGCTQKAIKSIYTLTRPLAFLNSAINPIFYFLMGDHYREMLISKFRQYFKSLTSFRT
Procedure: as §1, §2, §3

SUCNR1 = assay: Active/inactive grouping by EC50 threshold (ALiBERO training set, Table S1); settings: active (1) / inactive (0), EC50 threshold of 10 µM
Text: In brief, starting from the homology model supported by mutagenesis data[4], ALiBERO introduced receptor flexibility via Normal Mode Analysis and Monte Carlo sampling, to generate a small subset of receptor models (pockets). […] For a list of all compounds used in the optimisation protocol, see Table S1. Receptor structures were then chosen based on their ability to discriminate actives from inactives in a retrospective virtual screening using the docking protocol and scoring function in ICM (Molsoft L.L.C., San Diego, CA, USA)[20], as measured by the normalised square root area under the curve (NSQ_AUC). […] The ALiBERO-optimised receptor ensemble was subsequently validated in a virtual ligand screening using an external test set with a higher active:decoy ratio (~1:50).
ALiBERO is an iterative sampling-selection protocol for receptor optimisation that relies on the use of ligand information for selecting the best-performing receptor conformations. Homology models of the mouse SUCNR1 receptor were constructed according to Trauelsen et al.[4] and loaded into ICM (Molsoft L.L.C., San Diego, CA, USA). The structure was converted into an ICM object, thereby assigning protein atom types, optimising hydrogens and His, Pro, Asn, […] and Cys side-chain conformations. […] For a list of all compounds used in the optimisation protocol, see Table S1. ALiBERO was performed using the prepared receptor structure and ligand training set as input. Binding site residues were manually selected based on proximity to the position of MRS2500 in the superimposed structure of the P2Y1 receptor (PDB 4XNW). 100 elastic network normal mode analysis derived conformers were built in order to recreate backbone and side-chain flexibility (T = 300 K). Next, a flexible-ligand static-receptor small-scale virtual screening was performed on each of the receptor conformers, from which several pockets were selected for the following generation. The ligand and decoy molecules were docked into mSUCNR1, represented as pre-calculated potential grids and then sorted according to their ICM VLS scores. The maximum number of complementary pockets for each generation was set to 5 with a maximum of 10 generations. Receptor models were selected based on their combined screening performance, as determined by the normalised square root area under the curve, NSQ_AUC. After each round of virtual screening, an all-atom Monte Carlo side-chain refinement was performed to account for induced-by-ligand changes. NSQ_AUC values were calculated according to Katritch et al.[16].

[1] = dose-response curves of induction of IP3 turnover in SUCNR1 transfected HEK cells (N = 3)
[2] = relative to the 4-methoxy compound 17
[3] = dose-response curves of induction of IP3 turnover in SUCNR1 transfected HEK cells (N = 3), read-out: hSUCNR1 pEC50 (converted)
[4] = dose-response curves of induction of IP3 turnover in SUCNR1 transfected HEK cells (N = 3), read-out: mSUCNR1 pEC50 (converted)

hSUCNR1 efficacy, % (hSUCNR1) [%]	mSUCNR1 efficacy, % (mSUCNR1) [%]	EC50 (hSUCNR1) [nM]	EC50 (mSUCNR1) [nM]	Compound	Active (SUCNR1)	other results
81.6 ± 8.4	81.3 ± 3.6	5130	692	O=C(O)C[C@H](NC(=O)c1ccc(-c2ccccc2)o1)C(=O)O [Compound 10, (5-Phenylfuran-2-carbonyl)-L-aspartic acid]	1 (active (1))	–
94.7 ± 8.7	76.7 ± 3.1	5370	741	Cc1ccccc1-c1ccc(C(=O)N[C@@H](CC(=O)O)C(=O)O)o1 [Compound 11, (5-(o-Tolyl)furan-2-carbonyl)-L-aspartic acid]	1 (active (1))	–
91.9 ± 5.3	81.6 ± 3.0	9550	851	Cc1cccc(-c2ccc(C(=O)N[C@@H](CC(=O)O)C(=O)O)o2)c1 [Compound 12, (5-(m-Tolyl)furan-2-carbonyl)-L-aspartic acid]	1 (active (1))	–
74.2 ± 11.8	79.6 ± 3.7	15500	1950	O=C(O)C[C@H](NC(=O)c1ccc(-c2cccc(CO)c2)o1)C(=O)O [Compound 14, (5-(3-(Hydroxymethyl)phenyl)furan-2-carbonyl)-L-aspartic acid]	1 (active (1))	decrease in potency (mSUCNR1; relative to the 3-methyl (12), orthologue not stated): 3 fold
71.1 ± 4.2	74.8 ± 2.0	741	151	O=C(O)C[C@H](NC(=O)c1ccc(-c2ccc(O)cc2)o1)C(=O)O [Compound 15, (5-(4-Hydroxyphenyl)furan-2-carbonyl)-L-aspartic acid]	1 (active (1))	–
103.8 ± 7.9	78.1 ± 3.1	5130	724	COc1ccccc1-c1ccc(C(=O)N[C@@H](CC(=O)O)C(=O)O)o1 [Compound 16, (5-(2-Methoxyphenyl)furan-2-carbonyl)-L-aspartic acid]	1 (active (1))	–
85.3 ± 4.5	84.2 ± 1.8	389	40.7	COc1ccc(-c2ccc(C(=O)N[C@@H](CC(=O)O)C(=O)O)o2)cc1 [Compound 17, (5-(4-Methoxyphenyl)furan-2-carbonyl)-L-aspartic acid]	1 (active (1))	–
81.0 ± 7.2	80.6 ± 4.6	282	155	O=C(O)C[C@H](NC(=O)c1ccc(-c2ccc(C(F)(F)F)cc2)o1)C(=O)O [Compound 18, (5-(4-(Trifluoromethyl)phenyl)furan-2-carbonyl)-L-aspartic acid]	1 (active (1))	–
72.1 ± 3.2	76.0 ± 1.5	407	162	N#Cc1ccc(-c2ccc(C(=O)N[C@@H](CC(=O)O)C(=O)O)o2)cc1 [Compound 19, (5-(4-Cyanophenyl)furan-2-carbonyl)-L-aspartic acid]	1 (active (1))	–
61.7 ± 3.6	69.7 ± 2.8	102	191	O=C(O)C[C@H](NC(=O)c1ccc(-c2ccc(OC(F)(F)F)cc2)o1)C(=O)O [Compound 20, (5-(4-(Trifluoromethoxy)phenyl)furan-2-carbonyl)-L-aspartic acid]	1 (active (1))	increase in potency on hSUCNR1 (hSUCNR1; [2]): 2 fold; decrease in potency on mSUCNR1 (mSUCNR1; [2]): > 4 fold

Continued, molecule first:

Compound	hSUCNR1 efficacy, % (hSUCNR1) [%]	mSUCNR1 efficacy, % (mSUCNR1) [%]	EC50 (hSUCNR1) [nM]	EC50 (mSUCNR1) [nM]	Active (SUCNR1)	other results
O=C(O)C[C@H](NC(=O)c1ccc(Br)o1)C(=O)O [Compound 4, (5-Bromofuran-2-carbonyl)-L-aspartic acid]	78.1 ± 7.5	95.8 ± 2.9	–	–	0 (inactive (0))	hSUCNR1 pEC50 (hSUCNR1; [1]): 4.53 ± 0.13; mSUCNR1 pEC50 (mSUCNR1; [1]): 4.93 ± 0.05
O=C(O)C[C@H](NC(=O)c1ccccc1Cl)C(=O)O [Compound 5, (2-Chlorobenzoyl)-L-aspartic acid]	–	–	–	–	0 (inactive (0))	hSUCNR1 % @10^−4M (hSUCNR1): 22% @10^−4M; mSUCNR1 % @10^−4M (mSUCNR1): 13% @10^−4M
O=C(O)C[C@H](NC(=O)c1cccc(I)c1)C(=O)O [Compound 6, (3-Iodobenzoyl)-L-aspartic acid]	–	–	–	–	0 (inactive (0))	hSUCNR1 % @10^−4M (hSUCNR1): 50% @10^−4M; mSUCNR1 % @10^−4M (mSUCNR1): 64% @10^−4M
O=C(O)C[C@H](NC(=O)c1ccc(Br)cc1)C(=O)O [Compound 7, (4-Bromobenzoyl)-L-aspartic acid]	–	–	–	–	0 (inactive (0))	hSUCNR1 % @10^−4M (hSUCNR1): 8% @10^−4M; mSUCNR1 % @10^−4M (mSUCNR1): 15% @10^−4M
O=C(O)C[C@H](NC(=O)Cc1ccc(Br)cc1)C(=O)O [Compound 8, (2-(4-Bromophenyl)acetyl)-L-aspartic acid]	–	–	–	–	0 (inactive (0))	hSUCNR1 % @10^−4M (hSUCNR1): 5% @10^−4M; mSUCNR1 % @10^−4M (mSUCNR1): 11% @10^−4M
O=C(O)C[C@H](NC(=O)Cc1ccc(-c2ccc(F)cc2)cc1)C(=O)O [Compound 9, (2-(4′-Fluoro-[1,1′-biphenyl]-4-yl)acetyl)-L-aspartic acid]	–	–	–	–	0 (inactive (0))	hSUCNR1 % @10^−4M (hSUCNR1): 25% @10^−4M; mSUCNR1 % @10^−4M (mSUCNR1): 15% @10^−4M
Cc1ccc(-c2ccc(C(=O)N[C@@H](CC(=O)O)C(=O)O)o2)cc1 [Compound 13, (5-(p-Tolyl)furan-2-carbonyl)-L-aspartic acid]	69.1 ± 3.9	73.2 ± 2.7	–	–	1 (active (1))	hSUCNR1 pEC50 (hSUCNR1; [1]): 6.33 ± 0.14; mSUCNR1 pEC50 (mSUCNR1; [1]): 6.83 ± 0.11
O=C(O)C[C@H](NC(=O)c1cccc(-c2ccc(OCC(F)(F)F)cc2)n1)C(=O)O [Compound 32, (6-(4-(2,2,2-Trifluoroethoxy)phenyl)picolinoyl)-L-aspartic acid]	88.7 ± 6.1	68.1 ± 2.5	–	–	–	EC50 (hSUCNR1; [3]): 58.9 nM; EC50 (mSUCNR1; [4]): 100 nM
CCCOc1ccc(-c2cccc(C(=O)N[C@@H](CC(=O)O)C(=O)O)n2)cc1 [Compound 33, (6-(4-Propoxyphenyl)picolinoyl)-L-aspartic acid]	66.4 ± 7.2	61.5 ± 3.8	–	–	–	EC50 (hSUCNR1; [3]): 58.9 nM; EC50 (mSUCNR1; [4]): 51.3 nM
